# Experimental data taken from PMC7533260, “Design and tests of prospective property predictions for novel antimalarial 2-aminopropylaminoquinolones” (Journal of Computer-Aided Molecular Design, 2020).
# Biological target: T1, s-PfDHODH (Plasmodium falciparum, UniProt Q08210)
# T1 sequence (Q08210 158-569 limits assumed): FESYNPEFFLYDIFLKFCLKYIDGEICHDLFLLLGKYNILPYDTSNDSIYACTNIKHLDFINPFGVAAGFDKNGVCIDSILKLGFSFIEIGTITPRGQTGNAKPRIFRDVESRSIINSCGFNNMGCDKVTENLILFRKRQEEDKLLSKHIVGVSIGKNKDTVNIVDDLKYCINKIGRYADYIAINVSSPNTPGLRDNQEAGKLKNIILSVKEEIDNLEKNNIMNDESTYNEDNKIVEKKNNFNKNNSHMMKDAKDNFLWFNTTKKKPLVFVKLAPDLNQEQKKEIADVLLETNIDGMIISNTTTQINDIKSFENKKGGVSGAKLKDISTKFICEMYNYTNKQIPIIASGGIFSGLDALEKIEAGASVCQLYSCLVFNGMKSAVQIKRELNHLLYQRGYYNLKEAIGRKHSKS
# Assay: not given
# Parameters: method as in earlier work
# Details: literature data used to construct QSAR models; cited from earlier work
row,SMILES,IC50 [nM]
1,N#C/C(C(=O)Nc1ccc(C(F)(F)F)cc1)=C(/O)C1CC1 [Compound D04],92500
2,C/C(O)=C(/C#N)C(=O)Nc1ccc(-c2ccccc2)cc1 [Compound D10],25700
3,C/C(O)=C(/C#N)C(=O)Nc1ccc(-c2ccccc2Cl)cc1Cl [Compound D17],4000
4,C/C(O)=C(\C#N)C(=O)Nc1ccc(-c2ccccc2Cl)cc1C(F)(F)F [Compound D18],6200
5,COc1ccccc1-c1ccc(NC(=O)/C(C#N)=C(\C)O)c(Cl)c1 [Compound D19],8600
6,C/C(O)=C(/C#N)C(=O)Nc1ccc(-c2cccc(Cl)c2Cl)cc1Cl [Compound D20],9900
7,C/C(O)=C(/C#N)C(=O)Nc1ccc(-c2c(Cl)cccc2Cl)cc1Cl [Compound D21],10200
8,C/C(O)=C(/C#N)C(=O)Nc1ccc(-c2cccc(Cl)c2)cc1Cl [Compound D22],49100
9,C/C(O)=C(\C#N)C(=O)Nc1ccc(-c2cccc(Cl)c2)cc1C(F)(F)F [Compound D23],57200
10,C/C(O)=C(/C#N)C(=O)Nc1ccc(-c2ccccc2Cl)c(Cl)c1 [Compound D24],165000
11,C/C(O)=C(/C#N)C(=O)Nc1ccc(-c2cccc(Cl)c2)c(Cl)c1 [Compound D25],237000
12,C/C(O)=C(/C#N)C(=O)Nc1ccc(-c2cccc(Cl)c2Cl)cc1 [Compound D26],27200
13,C/C(O)=C(/C#N)C(=O)Nc1ccc(-c2ccccc2Cl)cc1 [Compound D27],47400
14,C/C(O)=C(/C#N)C(=O)Nc1ccc(-c2ccccc2)cc1Cl [Compound D28],51100
15,CCOc1cccc(-c2ccc(NC(=O)/C(C#N)=C(\C)O)cc2)c1 [Compound D29],182000
16,Cc1cc(Nc2ccc(C(F)(F)F)c(F)c2)n2ncnc2n1 [Compound G47],80

# Biological target: T1, s-PfDHODH
# Assay: Literature inhibition data for soluble recombinant PfDHODH (s-PfDHODH), dodecylubiquinone as substrate
# Format: biochemical
# Details: not given
# From the text: Data on PfDHODH inhibition were collected from the literature for a structurally diverse group of compounds. These included triazolopyrimidines, diphenylureas, and 2-cyano-3-hydroxy acrylanilides, among others. Quantitative data were not available for inhibition of the intact enzyme, which is bound to the mitochondrial membrane by its hydrophobic N-terminus in vivo [16]. […] The very low solubility of CoQ-10 limits its utility in vitro, so an artificial ubiquinone (dodecylubiquinone [DQ]) is usually used as substrate instead.
# The IC50 data for these 89 compounds were converted to inhibition constants (Ki’s) by assuming competitive inhibition against DQ and applying the method described by Cheng and Prusoff. Two artificial neural network ensemble (ANNE) regression models were constructed (henceforth referred to as Model A and Model B) using ADMET Modeler™ module of ADMET Predictor® [18]. The models were built on distinct 20% hold-out test sets (see Supplementary Methods for details).
row,SMILES,Ki [nM]
1,O=C(Nc1ccc(Cl)cc1Cl)c1ccc2ccccc2c1 [Compound B01],30
2,O=C(Nc1ccccc1F)c1ccc2ccccc2c1 [Compound B03],200
3,Cc1c(C(=O)Nc2cccc(Br)c2)cccc1[N+](=O)[O-] [Compound B04],20
4,Cc1c(C(=O)Nc2ccc(F)c(Cl)c2)cccc1[N+](=O)[O-] [Compound B05],40
5,Cc1c(C(=O)Nc2ccc(F)c(F)c2)cccc1[N+](=O)[O-] [Compound B07],140
6,Cc1c(C(=O)Nc2cccc3ccccc23)cccc1[N+](=O)[O-] [Compound B08],30
7,Cc1c(C(=O)Nc2ccc(Cl)c(Cl)c2)cccc1[N+](=O)[O-] [Compound B09],40
8,Cc1c(C(=O)Nc2cccc(C(F)(F)F)c2)cccc1[N+](=O)[O-] [Compound B10],40
9,O=C(Nc1ccccc1C(F)(F)F)Nc1cccc2ccccc12 [Compound B11],180
10,COc1ccccc1NC(=O)Nc1cccc2ccccc12 [Compound B12],120
11,O=C(Nc1ccc(Cl)cc1)Nc1cccc2cccnc12 [Compound B13],540
12,C/C(O)=C(/C#N)C(=O)Nc1ccc(-c2ccccc2)cc1 [Compound D10],3000
13,C/C(O)=C(/C#N)C(=O)Nc1ccc(-c2c(Cl)cccc2Cl)cc1Cl [Compound D21],1200
14,C/C(O)=C(\C#N)C(=O)Nc1ccc(-c2cccc(Cl)c2)cc1C(F)(F)F [Compound D23],6800
15,C/C(O)=C(/C#N)C(=O)Nc1ccc(-c2ccccc2Cl)c(Cl)c1 [Compound D24],20500
16,C/C(O)=C(/C#N)C(=O)Nc1ccc(-c2ccccc2Cl)cc1 [Compound D27],5600
17,CCOc1cccc(-c2ccc(NC(=O)/C(C#N)=C(\C)O)cc2)c1 [Compound D29],21500
18,Cc1cc(Nc2ccc(C#N)c(C(F)(F)F)c2)n2ncnc2n1 [Compound G45],1960
19,Cc1cc(Nc2ccc(C(F)(F)F)c(F)c2)n2ncnc2n1 [Compound G47],30
20,CCCNC(=O)c1ccc(-n2c(C)cc3ccccc32)s1 [Compound P03],20
21,CCCNC(=O)c1ccc(-n2ccc3ccccc32)s1 [Compound P06],200
22,CCOC(=O)C(=CNc1ccc2sc3ccccc3c2c1)C(=O)OCC [He05],20
23,CCOC(=O)/C(C#N)=C\Nc1ccc2c(c1)c1ccccc1n2CC [He06],50
24,CCOC(=O)C(=CNc1ccc(C)cc1)C(=O)OCC [He08],4600
25,CCOC(=O)C(=CNc1ccccc1C)C(=O)OCC [He09],39700
26,CCOC(=O)C(=CNc1ccc2[nH]cnc2c1)C(=O)OCC [He10],40200
27,CCOC(=O)C(=CNc1cccc(-c2ccccc2)c1)C(=O)OCC [He14],10000
28,Cc1cc(Nc2ccc(C(N)=O)cc2)n2ncnc2n1 [Tz13],80000
29,Cc1cc(Nc2ccccc2)n2ncnc2n1 [Tz19],40000
30,Cc1cc(Nc2ccc3cc4ccccc4cc3c2)n2ncnc2n1 [Tz20],20

# Same assay, conditions: converted from literature IC50 assuming competitive inhibition against DQ (Cheng and Prusoff); read-out: PfDHODH Ki
row,SMILES,Ki [nM]
1,Cc1c(C(=O)Nc2cc(Cl)cc(Cl)c2)cccc1[N+](=O)[O-] [Compound B06],10
2,N#C/C(C(=O)Nc1ccc(C(F)(F)F)cc1)=C(/O)C1CC1 [Compound D04],11000
3,C/C(O)=C(/C#N)C(=O)Nc1ccc(-c2ccccc2Cl)cc1Cl [Compound D17],480
4,C/C(O)=C(\C#N)C(=O)Nc1ccc(-c2ccccc2Cl)cc1C(F)(F)F [Compound D18],730
5,COc1ccccc1-c1ccc(NC(=O)/C(C#N)=C(\C)O)c(Cl)c1 [Compound D19],1000
6,C/C(O)=C(/C#N)C(=O)Nc1ccc(-c2cccc(Cl)c2Cl)cc1Cl [Compound D20],1200
7,C/C(O)=C(/C#N)C(=O)Nc1ccc(-c2cccc(Cl)c2)cc1Cl [Compound D22],5800
8,C/C(O)=C(/C#N)C(=O)Nc1ccc(-c2cccc(Cl)c2)c(Cl)c1 [Compound D25],28000
9,C/C(O)=C(/C#N)C(=O)Nc1ccc(-c2cccc(Cl)c2Cl)cc1 [Compound D26],3200
10,C/C(O)=C(/C#N)C(=O)Nc1ccc(-c2ccccc2)cc1Cl [Compound D28],6000
11,Cc1cc(Nc2cccc(F)c2)n2ncnc2n1 [Compound G13],3680
12,Cc1cc(Nc2cccc(Cl)c2)n2ncnc2n1 [Compound G14],560
13,Cc1cccc(Nc2cc(C)nc3ncnn23)c1 [Compound G15],1960
14,Cc1cc(Nc2cccc(C(F)(F)F)c2)n2ncnc2n1 [Compound G16],5600
15,Cc1cc(Nc2ccc(F)cc2)n2ncnc2n1 [Compound G17],7600
16,Cc1cc(Nc2ccc(Cl)cc2)n2ncnc2n1 [Compound G18],640
17,Cc1cc(Nc2ccc(Br)cc2)n2ncnc2n1 [Compound G19],310
18,Cc1ccc(Nc2cc(C)nc3ncnn23)cc1 [Compound G20],1680
19,COc1ccc(Nc2cc(C)nc3ncnn23)cc1 [Compound G22],1840
20,Cc1cc(Nc2ccc(OC(F)(F)F)cc2)n2ncnc2n1 [Compound G23],480
21,Cc1cc(Nc2ccc(OC(F)F)cc2)n2ncnc2n1 [Compound G24],1120
22,Cc1cc(Nc2ccc([N+](=O)[O-])cc2)n2ncnc2n1 [Compound G25],1720
23,Cc1cc(Nc2ccc(-c3ccccc3)cc2)n2ncnc2n1 [Compound G26],2120
24,Cc1cc(Nc2ccc(Cc3ccccc3)cc2)n2ncnc2n1 [Compound G27],880
25,Cc1cc(Nc2ccc(F)c(F)c2F)n2ncnc2n1 [Compound G31],11600
26,Cc1cc(Nc2cc(F)c(F)cc2F)n2ncnc2n1 [Compound G32],6800

row,SMILES,Ki [nM]
1,Cc1ccc(Nc2cc(C)nc3ncnn23)c(F)c1 [Compound G36],10800
2,Cc1cc(Nc2ccc(F)c(F)c2)n2ncnc2n1 [Compound G37],3200
3,Cc1cc(Nc2cc(F)cc(F)c2)n2ncnc2n1 [Compound G38],3760
4,Cc1cc(Nc2ccc(F)c(C)c2)n2ncnc2n1 [Compound G40],1840
5,Cc1cc(Nc2ccc(Cl)c(C(F)(F)F)c2)n2ncnc2n1 [Compound G41],320
6,Cc1cc(Nc2ccc(Br)c(C(F)(F)F)c2)n2ncnc2n1 [Compound G42],180
7,Cc1cc(Nc2ccc(C)c(C(F)(F)F)c2)n2ncnc2n1 [Compound G43],620
8,Cc1cc(Nc2ccc(C)c(C)c2)n2ncnc2n1 [Compound G44],140
9,Cc1cc(Nc2ccc(C)c(F)c2)n2ncnc2n1 [Compound G46],340
10,Cc1ccccc1/C=C/c1cc(O)c2ccccc2n1 [Compound P01],400
11,CCCCCC1CCCc2c1nc1ccccc1c2O (stereo not shown) [Compound P02],150
12,O=C(NC1CC1)c1ccc(N2CCSc3ccccc32)s1 [Compound P04],110
13,CCCNC(=O)c1ccc(-n2cnc3ccccc32)s1 [Compound P10],300
14,CCCNC(=O)c1ccc(-n2c(C)nc3ccccc32)s1 [Compound P11],70
15,CCOC(=O)C(=CNc1ccc2[nH]ncc2c1)C(=O)OCC [He07],3200
16,FC(F)(F)c1cc(Nc2ccc3ccccc3c2)n2ncnc2n1 [Tz08],80
17,CCc1cc(Nc2ccc3ccccc3c2)n2ncnc2n1 [Tz09],80
18,Cc1nc2ncnn2c(Nc2ccc3ccccc3c2)c1C [Tz10],60
19,Cc1cc(N(C)c2ccc3ccccc3c2)n2ncnc2n1 [Tz11],1200
20,Cc1cc(N(Cc2ccccc2)c2ccc3ccccc3c2)n2ncnc2n1 [Tz12],37200
21,Cc1cc(Nc2cnc3ccccc3c2)n2ncnc2n1 [Tz14],680
22,Cc1cc(Nc2ccc3ncccc3c2)n2ncnc2n1 [Tz15],480
23,Cc1cc(Nc2cc3ccccc3cc2O)n2ncnc2n1 [Tz16],130
24,Cc1cc(Nc2ccc3c(=O)cc(C)oc3c2)n2ncnc2n1 [Tz17],800
25,Cc1cc(Nc2cccc3ccccc23)n2ncnc2n1 [Tz18],18000
